Measured values reported in patent publication US20080318943A1, “Compounds and Uses Thereof - 848” (ASTRAZENECA AB, priority 2007, published 2008).

Columns and labels:
[1] = biological target: T1, GABAA2 receptors (α2, β3, γ2 receptor subunits transfected into Sf9 cells) (Homo sapiens, UniProt P18507+P47869); test: GABAA2 Binding Method ([3H]-Flunitrazepam displacement); settings: [3H]-Flunitrazepam ~2 nM, α2β3γ2 Sf9 membranes, 1 hr at 4° C.
T1 construct: host or cells: Sf9 cells (membranes)
Outline: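 Displacement of [3H]-flunitrazepam (~2 nM in assay) from recombinant human α2β3γ2 receptors in Sf9 membranes; 1 h incubation at 4 °C, harvest by filtration. Values reported as percent of control, IC50 and Ki.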

GABAA receptor α1β2γ2 = biological target: T2, GABAA receptor α1β2γ2 (Homo sapiens, UniProt P14867+P18507); test: Two-electrode voltage-clamp potentiation of GABA EC10 current in Xenopus oocytes, GABAA1; assay type: cell-based; settings: percentage potentiation of GABA EC10 current divided by that of diazepam
T2 construct: expressed in transfected cells; host or cells: Xenopus laevis oocytes injected with cRNA
T2 sequence (P14867 28-456): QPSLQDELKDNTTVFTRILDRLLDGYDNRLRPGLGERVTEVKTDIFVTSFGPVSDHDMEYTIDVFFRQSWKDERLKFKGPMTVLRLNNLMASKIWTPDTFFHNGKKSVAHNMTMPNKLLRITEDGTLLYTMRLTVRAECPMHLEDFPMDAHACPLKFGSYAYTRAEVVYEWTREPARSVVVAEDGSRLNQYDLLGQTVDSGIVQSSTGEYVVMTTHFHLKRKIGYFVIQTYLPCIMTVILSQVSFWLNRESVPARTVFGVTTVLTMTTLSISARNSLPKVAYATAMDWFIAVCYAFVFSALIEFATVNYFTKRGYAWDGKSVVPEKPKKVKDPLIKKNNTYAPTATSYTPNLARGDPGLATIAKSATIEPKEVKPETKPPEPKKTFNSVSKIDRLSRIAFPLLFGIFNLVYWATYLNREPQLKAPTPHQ
T2 sequence (P47870 25-512 partner limits assumed): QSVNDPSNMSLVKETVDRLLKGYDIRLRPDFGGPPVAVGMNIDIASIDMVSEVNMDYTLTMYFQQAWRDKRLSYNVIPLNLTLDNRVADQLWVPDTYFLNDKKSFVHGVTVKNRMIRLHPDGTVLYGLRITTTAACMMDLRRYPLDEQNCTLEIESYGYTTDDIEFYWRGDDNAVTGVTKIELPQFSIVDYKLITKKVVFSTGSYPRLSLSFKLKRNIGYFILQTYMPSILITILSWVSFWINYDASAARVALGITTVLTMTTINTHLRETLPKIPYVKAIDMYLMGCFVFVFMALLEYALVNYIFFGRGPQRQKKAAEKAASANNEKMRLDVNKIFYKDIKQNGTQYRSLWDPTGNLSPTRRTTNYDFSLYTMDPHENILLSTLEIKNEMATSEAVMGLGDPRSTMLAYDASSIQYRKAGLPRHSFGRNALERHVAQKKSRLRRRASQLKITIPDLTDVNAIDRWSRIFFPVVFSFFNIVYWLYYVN
T2 sequence (P18507 40-475): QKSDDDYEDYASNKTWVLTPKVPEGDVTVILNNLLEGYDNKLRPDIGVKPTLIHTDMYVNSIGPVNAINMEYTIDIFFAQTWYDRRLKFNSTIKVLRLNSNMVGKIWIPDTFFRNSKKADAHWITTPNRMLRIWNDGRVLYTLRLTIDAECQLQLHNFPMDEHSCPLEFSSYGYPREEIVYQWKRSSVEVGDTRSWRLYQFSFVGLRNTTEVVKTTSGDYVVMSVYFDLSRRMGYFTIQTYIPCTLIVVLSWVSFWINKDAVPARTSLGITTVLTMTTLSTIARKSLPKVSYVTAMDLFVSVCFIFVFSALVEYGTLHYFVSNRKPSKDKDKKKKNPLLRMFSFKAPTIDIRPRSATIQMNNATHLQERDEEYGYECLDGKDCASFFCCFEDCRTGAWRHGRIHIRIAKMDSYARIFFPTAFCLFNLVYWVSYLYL
Experimental: GABAA receptors were heterologously expressed in Xenopus oocytes by injecting cRNA corresponding to human α1, α2, α3, α5, β2, P3 and γ2 subunits of the GABAA receptor genes. The specific subunit combinations (subtypes) were as follows: α1β2γ2, α2β3γ2, α3β3γ2, and α5β3γ2. The EC10 of GABA is approximated for each cell. Stability of GABA-mediated (EC10) current is established. Modulatory effect of test compound is determined and compared across subtypes. […] Thus, the assay can characterize modulatory effects and determine subtype selectivity of test compounds on major subtypes of GABAA receptors.
Xenopus laevis frogs (Xenopus I, Kalamazoo, Mich.) were anesthetized using 0.15% tricaine. Surgically removed ovarian lobes were teased out in OR2 solution (82 NaCl, 2.5 KCl, 5 HEPES, 1.5 NaH2PO4, 1 MgCl2, 0.1 EDTA, in mM, pH 7.4). The oocytes were defolliculated by incubation in 25 mL OR2 containing 0.2% collagenase 1A (SIGMA) two times for about 60 minutes on a platform shaker and stored in Leibovitz's L-15 medium. Oocytes were injected the following day in 0.5× Leibovitz's L-15 medium containing […] gentamycin, 10 units/ml penicillin, and […] streptomycin.
Capped cRNAs from the linearized vectors containing human α1, β2 and γ2 subunits of the GABAA receptor genes were mixed in ratio of […]. Oocytes were injected with 25-50 nL of mixed RNA with an appx molar ratio for α1, β2, and γ2 as 1:1:10. Oocyte recordings were done 2-10 days after injection. The same methods apply to subtypes derived from α2β3γ2, α3β3γ2, and α5β3γ2, except for 1:1:1 ratio was used for α, β, and γ subunits.
All measurements were done in a medium containing ND-96 (96 NaCl, 2 KCl, 1.8 CaCl2.2H2O, 1 MgCl2.6H2O, 5 HEPES, in mM, pH 7.5). Two-electrode voltage-clamp recording was carried out using OpusXpress amplifier (Axon Instruments, Foster City, Calif.), which allows simultaneous recording from 8 oocytes. Oocytes were impaled with two electrodes of 1-2 MΩ tip resistance when filled with 3M KCl. Recordings were begun when membrane potential became stable at potentials negative to −50-−60 mV. Membrane potential was held at −60 mV. […] The concentration of GABA corresponded to the EC10 value calculated for each oocyte. The modulator pulses started 30 s before the GABA pulse so as to allow preincubation with the modulator. A set of 3 pulses with just GABA without modulator was given prior to the modulator-containing pulses to define the baseline GABA response. Two oocytes per each experiment were dedicated to observe the effect of diazepam on GABA response to ensure the presence of γ2 subunit in the GABAA pentameric complex, which imparts diazepam sensitivity to the complex.
Current amplitude (i) was measured from baseline to peak using Clampfit (Axon Inst., Foster City, Calif.). Potentiation was calculated as percent change from the baseline GABA current flux 100×(imod/icontrol)−1) where imod=current mediated by modulator+GABA and icontrol=current mediated by GABA alone. […] Similarly, a value of −50% potentiation means the presence of modulator caused a 50% decrease in the control current. Various other data shown here were fitted and plotted using GraphPad Prism (GraphPad Software, Inc. San Diego, Calif.). The percentage potentiation was converted to relative potentiation by dividing it with percentage potentiation value obtained from the same assay with diazepam as a control.

T1 sequence (P47869 29-451): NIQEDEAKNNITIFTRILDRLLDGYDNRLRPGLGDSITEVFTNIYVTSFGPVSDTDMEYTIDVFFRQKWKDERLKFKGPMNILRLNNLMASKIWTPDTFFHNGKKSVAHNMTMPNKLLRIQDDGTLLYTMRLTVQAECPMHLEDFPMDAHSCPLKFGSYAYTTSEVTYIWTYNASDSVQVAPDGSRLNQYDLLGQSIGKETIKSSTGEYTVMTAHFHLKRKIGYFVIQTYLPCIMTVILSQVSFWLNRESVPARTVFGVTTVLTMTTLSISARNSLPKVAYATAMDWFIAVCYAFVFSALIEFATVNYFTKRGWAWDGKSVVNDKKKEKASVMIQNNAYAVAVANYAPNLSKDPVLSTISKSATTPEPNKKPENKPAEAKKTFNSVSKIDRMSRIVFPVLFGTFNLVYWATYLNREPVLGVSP
T1 sequence (P28472 26-473 partner): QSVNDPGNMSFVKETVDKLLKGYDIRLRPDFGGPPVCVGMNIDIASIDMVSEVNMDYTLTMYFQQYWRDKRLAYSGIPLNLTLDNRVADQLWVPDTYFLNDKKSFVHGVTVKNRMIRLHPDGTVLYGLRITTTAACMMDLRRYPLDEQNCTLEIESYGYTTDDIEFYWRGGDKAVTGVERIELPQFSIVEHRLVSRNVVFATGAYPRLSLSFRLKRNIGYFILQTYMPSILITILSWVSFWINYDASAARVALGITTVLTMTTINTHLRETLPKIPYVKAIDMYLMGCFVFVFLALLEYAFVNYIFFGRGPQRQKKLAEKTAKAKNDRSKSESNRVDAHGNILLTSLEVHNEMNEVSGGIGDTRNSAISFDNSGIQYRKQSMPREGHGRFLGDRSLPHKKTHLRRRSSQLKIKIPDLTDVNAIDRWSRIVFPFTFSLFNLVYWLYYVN
T1 sequence (P18507 40-475): as the sequence (P18507 40-475) above

SMILES | Ki [1] [µM] | Relative Potentiation for GABAA1 (GABAA receptor α1β2γ2)
CCCN1Cc2nc3c(-c4ccncc4)cccc3c(N)c2C1=O [9-amino-2-propyl-5-(pyridin-4-yl)-2,3-dihydro-1H-pyrrolo[3,4-b]quinolin-1-one] | 0.0246 | 0.43
COc1ccc(CN2Cc3nc4c(-c5cccnc5OC)cccc4c(N)c3C2=O)cc1OC [9-amino-2-(3,4-dimethoxybenzyl)-5-(2-methoxypyridin-3-yl)-2,3-dihydro-1H-pyrrolo[3,4-b]quinolin-1-one] | 0.0023 | 0.12
COc1ccc(CN2Cc3nc4c(-c5ccc(OC)cc5OC)cccc4c(N)c3C2=O)cc1 [9-amino-5-(2,4-dimethoxyphenyl)-2-(4-methoxybenzyl)-2,3-dihydro-1H-pyrrolo[3,4-b]quinolin-1-one] | 0.0321 | 0.25
COc1ccc(CN2Cc3nc4c(-c5cncc(OC)c5)cccc4c(N)c3C2=O)cc1 [9-amino-2-(4-methoxybenzyl)-5-(5-methoxypyridin-3-yl)-2,3-dihydro-1H-pyrrolo[3,4-b]quinolin-1-one] | 0.00609 | 0.22
Nc1c2c(nc3c(-c4ccccc4C(F)(F)F)cccc13)CN(C1CC1)C2=O [9-amino-2-cyclopropyl-5-(2-(trifluoromethyl)phenyl)-2,3-dihydro-1H-pyrrolo[3,4-b]quinolin-1-one] | 0.0227 | 0.48
CCCN1Cc2nc3c(-c4ccccc4C(F)(F)F)cccc3c(N)c2C1=O [9-amino-2-propyl-5-(2-(trifluoromethyl)phenyl)-2,3-dihydro-1H-pyrrolo[3,4-b]quinolin-1-one] | 0.0166 | 0.48
CCCN1Cc2nc3c(-c4ccccc4C)cccc3c(N)c2C1=O [9-amino-2-propyl-5-(2-methylphenyl)-2,3-dihydro-1H-pyrrolo[3,4-b]quinolin-1-one] | 0.00553 | 0.35
COc1ncc(-c2cccc3c(N)c4c(nc23)CN(Cc2ccc3c(c2)OCO3)C4=O)c(OC)n1 [9-amino-2-(benzo[d][1,3]dioxol-5-ylmethyl)-5-(2,4-dimethoxypyrimidin-5-yl)-2,3-dihydro-1H-pyrrolo[3,4-b]quinolin-1-one] | 0.0302 | 0.4
CCCN1Cc2nc3c(-c4cncc(C#N)c4)cccc3c(N)c2C1=O [5-(9-amino-1-oxo-2-propyl-2,3-dihydro-1H-pyrrolo[3,4-b]quinolin-5-yl)nicotinonitrile] | 0.0649 | 0.26
COc1ccc(-c2cccc3c(N)c4c(nc23)CN(C2CC2)C4=O)c(C(F)(F)F)c1 [9-amino-2-cyclopropyl-5-(4-methoxy-2-(trifluoromethyl)phenyl)-2,3-dihydro-1H-pyrrolo[3,4-b]quinolin-1-one] | 0.0319 | 0.5
CCCN1Cc2nc3c(-c4ccsc4)cccc3c(N)c2C1=O [9-amino-2-propyl-5-(thiophen-3-yl)-2,3-dihydro-1H-pyrrolo[3,4-b]quinolin-1-one] | 0.0308 | 0.19
COc1ccncc1-c1cccc2c(N)c3c(nc12)CN(Cc1ccc2c(c1)OCO2)C3=O [9-amino-2-(benzo[d][1,3]dioxol-5-ylmethyl)-5-(4-methoxypyridin-3-yl)-2,3-dihydro-1H-pyrrolo[3,4-b]quinolin-1-one] | 0.00219 | 0.28

The remaining lines, values ahead:

Ki [1] [µM] | Relative Potentiation for GABAA1 (GABAA receptor α1β2γ2) | SMILES
0.0139 | 0.39 | CCCN1Cc2nc3c(-c4ccc(OC)cc4OC)c(F)ccc3c(N)c2C1=O [9-amino-5-(2,4-dimethoxyphenyl)-6-fluoro-2-propyl-2,3-dihydro-1H-pyrrolo[3,4-b]quinolin-1-one]
0.0115 | 0.2 | CCCN1Cc2nc3c(-c4cccc(OC)c4F)cccc3c(N)c2C1=O [9-amino-5-(2-fluoro-3-methoxyphenyl)-2-propyl-2,3-dihydro-1H-pyrrolo[3,4-b]quinolin-1-one]
0.0063 | 0.29 | CCCN1Cc2nc3c(-c4cc(F)ccc4C)cccc3c(N)c2C1=O [9-amino-5-(5-fluoro-2-methylphenyl)-2-propyl-2,3-dihydro-1H-pyrrolo[3,4-b]quinolin-1-one]
0.0484 | 0.29 | COc1ccc(CN2Cc3nc4c(-c5cc(F)c(OC)cc5F)cccc4c(N)c3C2=O)cc1 [9-amino-5-(2,5-difluoro-4-methoxyphenyl)-2-(4-methoxybenzyl)-2,3-dihydro-1H-pyrrolo[3,4-b]quinolin-1-one]
0.0753 | 0.21 | CCCN1Cc2nc3c(-c4ccc(F)nc4F)cccc3c(N)c2C1=O [9-amino-5-(2,6-difluoropyridin-3-yl)-2-propyl-2,3-dihydro-1H-pyrrolo[3,4-b]quinolin-1-one]
0.0164 | 0.29 | CCCN1Cc2nc3c(-c4ccc(OC)nc4C)cccc3c(N)c2C1=O [9-amino-5-(6-methoxy-2-methylpyridin-3-yl)-2-propyl-2,3-dihydro-1H-pyrrolo[3,4-b]quinolin-1-one]
0.0142 | 0.34 | CCN1Cc2nc3c(-c4cc(C)cc(C)c4)cccc3c(N)c2C1=O [9-amino-5-(3,5-dimethylphenyl)-2-ethyl-2,3-dihydro-1H-pyrrolo[3,4-b]quinolin-1-one]
0.0312 | 0.22 | COc1ccc(CN2Cc3nc4c(-c5ccc(F)cc5OC)cccc4c(N)c3C2=O)cc1 [9-amino-5-(4-fluoro-2-methoxyphenyl)-2-(4-methoxybenzyl)-2,3-dihydro-1H-pyrrolo[3,4-b]quinolin-1-one]
0.0258 | 0.22 | COc1ccc(CN2Cc3nc4c(-c5cc(F)ccc5C)cccc4c(N)c3C2=O)cc1 [9-amino-5-(5-fluoro-2-methylphenyl)-2-(4-methoxybenzyl)-2,3-dihydro-1H-pyrrolo[3,4-b]quinolin-1-one]
0.0209 | −0.008 | COc1ccc([C@@H](C)N2Cc3nc4c(-c5c(F)cccc5OC)cccc4c(N)c3C2=O)cc1 [9-amino-5-(2-fluoro-6-methoxyphenyl)-2-((R)-1-(4-methoxyphenyl)ethyl)-2,3-dihydro-1H-pyrrolo[3,4-b]quinolin-1-one]
0.00972 | 0.45 | CCCN1Cc2nc3c(-c4cc(OC)cnc4Cl)cccc3c(N)c2C1=O [9-amino-5-(2-chloro-5-methoxypyridin-3-yl)-2-propyl-2,3-dihydro-1H-pyrrolo[3,4-b]quinolin-1-one]
0.00895 | 0.19 | COc1ccc(Cl)cc1-c1cccc2c(N)c3c(nc12)CN(C1CC1)C3=O [9-amino-5-(5-chloro-2-methoxyphenyl)-2-cyclopropyl-2,3-dihydro-1H-pyrrolo[3,4-b]quinolin-1-one]
0.00808 | 0.6 | CCCN1Cc2nc3c(-c4cc(F)ncc4OC)cccc3c(N)c2C1=O [9-amino-5-(2-fluoro-5-methoxypyridin-4-yl)-2-propyl-2,3-dihydro-1H-pyrrolo[3,4-b]quinolin-1-one]
0.00755 | 0.33 | CCCN1Cc2nc3c(-c4cc(C)cnc4F)cccc3c(N)c2C1=O [9-amino-5-(2-fluoro-5-methylpyridin-3-yl)-2-propyl-2,3-dihydro-1H-pyrrolo[3,4-b]quinolin-1-one]
